Patent US20250356957A1, “EMULATOR OF SUBCUTANEOUS ABSORPTION AND RELEASE” (UNIVERSITY OF KANSAS, priority 2022, published 2025)

Assay: ESCAR drug release tests for acetaminophen solution (factor screening)
Type: in vitro ADME
Details: center position injection, 10 mg/mL solution
Procedure: Acetaminophen solution (10 mg/mL) and the subcutaneous chamber (Version 1; FIG. 2C) were used across different runs. Both the “lymphatic circulation” and “blood circulation” chambers were filled with 75 mL of PBS (pH 7.4), and the subcutaneous chamber was filled with 2.8 mL of HA/PBS solution. At the surrounding areas of the interfaces, a layer of mounting tape was assembled to prevent liquid leakage. Sequentially, the “subcutaneous”/“blood circulation” interface was assembled with a SpectraPor® dialysis membrane (MWCO: 50 kDa), and the “subcutaneous”/“lymphatic circulation” interface was assembled with a SpectraPor® dialysis membrane (MWCO: 300 kDa). All membranes were pre-soaked in DI water for at least 1 h before use. The drug release tests were conducted at 34° C. in a convective oven, with mild magnetic stirring in the “blood circulation” and “lymphatic circulation” chambers. […] A 18-run full factorial experimental design was employed to evaluate three factors, HA concentration (three levels: 2.5, 5, 10 mg/mL), injection volume (three levels: 0.25, 0.5, 1 mL), and injection position/needle tip position to the membrane at the “subcutaneous”/“blood circulation” interface (two levels: 0.2, 0.5 cm). At the pre-set time points, 1.5 mL of aliquots were withdrawn from the “blood circulation” chamber with the replacement of the same volume of PBS. Each run was conducted in triplicate.

- release fraction (%) at 8-hr (2.5 mg/mL HA solution): ~60%
- release fraction (%) at 8-hr (5 mg/mL HA solution): ~30%
- release fraction (%) at 8-hr (10 mg/mL HA solution): ~15%
- release fraction (%) at 8-hr (subcutaneous medium PBS): ~80%
SMILES: CC(=O)Nc1ccc(O)cc1 [acetaminophen, Acetaminophen]
